Data reported in PubChem BioAssay AID248 (DTP/NCI, 2004).
“And” between values parts separate entries of the source, which are not always exact repeats. Equal values may be shown once. Toxic doses and inconclusive results are not listed. Cut-off read from the data, not from the text of the source: active = T/C of 150% or more; inactive = T/C below 125%.

Test system: L1210 leukemia ip in BDF1 mice, survival T/C
Experiment: NCI In Vivo Anticancer Drug Screen. Data for tumor model L1210 Leukemia (intraperitoneal) in B6D2F1 (BDF1) mice
Conditions: higher = longer survival
Method in brief: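 Ratio derived from survival: compound-dosed mice over vehicle-dosed mice, all bearing a transplantable tumor.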

[1] = endpoint: mean survival time, dose: 100.0 mg/kg/injection, schedule: Q01DX001 (ip), vehicle: saline
[2] = endpoint: mean survival time, dose: 200.0 mg/kg/injection, schedule: Q01DX001 (ip), vehicle: saline
[3] = endpoint: mean survival time, dose: 400.0 mg/kg/injection, schedule: Q01DX001 (ip), vehicle: saline
[4] = endpoint: mean survival time, dose: 25.0 mg/kg/injection, schedule: Q01DX009 (ip), vehicle: saline
[5] = endpoint: mean survival time, dose: 50.0 mg/kg/injection, schedule: Q01DX009 (ip), vehicle: saline
[6] = endpoint: mean survival time, dose: 100.0 mg/kg/injection, schedule: Q04DX003 (ip), vehicle: saline
[7] = endpoint: mean survival time, dose: 200.0 mg/kg/injection, schedule: Q04DX003 (ip), vehicle: saline
[8] = endpoint: mean survival time, dose: 400.0 mg/kg/injection, schedule: Q04DX003 (ip), vehicle: saline
[9] = endpoint: mean survival time, dose: 50.0 mg/kg/injection, schedule: Q01DX009 (ip), vehicle: Klucel (hydroxypropylcellulose) (HPC)
[10] = endpoint: mean survival time, dose: 100.0 mg/kg/injection, schedule: Q01DX009 (ip), vehicle: Klucel (hydroxypropylcellulose) (HPC)
[11] = endpoint: mean survival time, dose: 100.0 mg/kg/injection, schedule: Q04DX003 (ip), vehicle: Klucel (hydroxypropylcellulose) (HPC)
[12] = endpoint: mean survival time, dose: 200.0 mg/kg/injection, schedule: Q01DX009 (ip), vehicle: Klucel (hydroxypropylcellulose) (HPC)
[13] = endpoint: mean survival time, dose: 200.0 mg/kg/injection, schedule: Q04DX003 (ip), vehicle: Klucel (hydroxypropylcellulose) (HPC)
[14] = endpoint: mean survival time, dose: 100.0 mg/kg/injection, schedule: Q04DX003 (ip), vehicle: saline with Tween-80
[15] = endpoint: mean survival time, dose: 200.0 mg/kg/injection, schedule: Q04DX003 (ip), vehicle: saline with Tween-80
[16] = endpoint: mean survival time, dose: 400.0 mg/kg/injection, schedule: Q04DX003 (ip), vehicle: saline with Tween-80

Measured: T/C

CC12C=CC3(CCC4C(C)(C)C(OC5OC(CO)C(O)C(O)C5O)C(=O)CC4(C)C3CC1=O)C2 (centres undefined)
inactive: [1] 100 % of control | [2] 109 % of control | [3] 97 % of control

N#CCc1ccc(Cl)c(Cl)c1
inactive: endpoint: mean survival time, dose: 5.0 mg/kg/injection, schedule: Q01DX001 (ip), vehicle: saline 100 % of control | endpoint: mean survival time, dose: 10.0 mg/kg/injection, schedule: Q01DX001 (ip), vehicle: saline 105 % of control | endpoint: mean survival time, dose: 20.0 mg/kg/injection, schedule: Q01DX001 (ip), vehicle: saline 95 % of control | endpoint: mean survival time, dose: 40.0 mg/kg/injection, schedule: Q01DX001 (ip), vehicle: saline 95 % of control | endpoint: mean survival time, dose: 80.0 mg/kg/injection, schedule: Q01DX001 (ip), vehicle: saline 98 % of control

CCNC(C)C
inactive: [4] 98 % of control | endpoint: mean survival time, dose: 25.0 mg/kg/injection, schedule: Q04DX003 (ip), vehicle: saline 92 % of control | [5] 93 % of control | endpoint: mean survival time, dose: 50.0 mg/kg/injection, schedule: Q04DX003 (ip), vehicle: saline 97 % of control | endpoint: mean survival time, dose: 100.0 mg/kg/injection, schedule: Q01DX009 (ip), vehicle: saline 98 % of control | [6] 95 % of control and 107 % of control

NNc1cc(S(=O)(=O)O)cc2cc(S(=O)(=O)O)cc(O)c12
inactive: endpoint: mean survival time, dose: 75.0 mg/kg/injection, schedule: Q01DX009 (ip), vehicle: Klucel (hydroxypropylcellulose) (HPC) 107 % of control | endpoint: mean survival time, dose: 150.0 mg/kg/injection, schedule: Q01DX009 (ip), vehicle: Klucel (hydroxypropylcellulose) (HPC) 107 % of control | endpoint: mean survival time, dose: 300.0 mg/kg/injection, schedule: Q01DX009 (ip), vehicle: Klucel (hydroxypropylcellulose) (HPC) 104 % of control

CSc1ncnc2c1ncn2NC(C)=O
inactive: endpoint: mean survival time, dose: 88.0 mg/kg/injection, schedule: Q01DX009 (ip), vehicle: other 107 % of control | endpoint: mean survival time, dose: 100.0 mg/kg/injection, schedule: Q01DX001 (ip), vehicle: other 98 % of control | endpoint: mean survival time, dose: 134.0 mg/kg/injection, schedule: Q01DX009 (ip), vehicle: other 104 % of control | endpoint: mean survival time, dose: 200.0 mg/kg/injection, schedule: Q01DX001 (ip), vehicle: other 104 % of control | endpoint: mean survival time, dose: 200.0 mg/kg/injection, schedule: Q01DX009 (ip), vehicle: other 113 % of control | endpoint: mean survival time, dose: 300.0 mg/kg/injection, schedule: Q01DX009 (ip), vehicle: other 120 % of control | endpoint: mean survival time, dose: 400.0 mg/kg/injection, schedule: Q01DX001 (ip), vehicle: other 112 % of control

CCOc1ccn(CC(=O)N2CCC3(CC2)SSC2(CCN(C(=O)Cn4ccc(OCC)nc4=O)CC2)S3)c(=O)n1
inactive: [6] 90 % of control | [7] 92 % of control | [8] 95 % of control

CC(C)(C)[CH2][Sn]([CH2]C(C)(C)C)([CH2]C(C)(C)C)[c]1ccc(-c2ccccc2)cc1
inactive: endpoint: mean survival time, dose: 100.0 mg/kg/injection, schedule: Q04DX002 (ip), vehicle: Klucel (hydroxypropylcellulose) (HPC) 111 % of control | endpoint: mean survival time, dose: 200.0 mg/kg/injection, schedule: Q04DX002 (ip), vehicle: Klucel (hydroxypropylcellulose) (HPC) 92 % of control | endpoint: mean survival time, dose: 400.0 mg/kg/injection, schedule: Q04DX002 (ip), vehicle: Klucel (hydroxypropylcellulose) (HPC) 92 % of control

CCN(CC)CCCC(C)Nc1cc(N)nc2nc(-c3ccccc3)c(-c3ccccc3)nc12 (centres undefined)
inactive: endpoint: mean survival time, dose: 9.5 mg/kg/injection, schedule: Q01DX001 (ip), vehicle: other 89 % of control | endpoint: mean survival time, dose: 38.0 mg/kg/injection, schedule: Q01DX001 (ip), vehicle: other 87 % of control | endpoint: mean survival time, dose: 75.0 mg/kg/injection, schedule: Q01DX001 (ip), vehicle: other 96 % of control

O=C(O)c1cc2ccccc2s1
inactive: [9] 98 % of control | [10] 101 % of control | [11] 102 % of control | [12] 95 % of control | [13] 94 % of control

COC(C)c1nnnn1C (centres undefined)
inactive: [14] 97 % of control | [15] 98 % of control | [16] 101 % of control

O=[N+]([O-])c1ccc2c(c1)Cc1cc(Br)ccc1-2
inactive: [10] 106 % of control | [11] 92 % of control | [12] 95 % of control | [13] 91 % of control | endpoint: mean survival time, dose: 400.0 mg/kg/injection, schedule: Q01DX009 (ip), vehicle: Klucel (hydroxypropylcellulose) (HPC) 98 % of control | endpoint: mean survival time, dose: 400.0 mg/kg/injection, schedule: Q04DX003 (ip), vehicle: Klucel (hydroxypropylcellulose) (HPC) 102 % of control

Cc1cc([N+](=O)[O-])cc([N+](=O)[O-])c1Cl
inactive: [9] 103 % of control | [10] 100 % of control | [11] 98 % of control | [13] 103 % of control

O=[N+]([O-])c1ccc(/C=C/c2nnc(/C=C/c3ccc([N+](=O)[O-])cc3)o2)cc1
inactive: endpoint: mean survival time, dose: 50.0 mg/kg/injection, schedule: Q04DX002 (ip), vehicle: saline with Tween-80 100 % of control | endpoint: mean survival time, dose: 100.0 mg/kg/injection, schedule: Q04DX002 (ip), vehicle: saline with Tween-80 89 % of control | endpoint: mean survival time, dose: 200.0 mg/kg/injection, schedule: Q04DX002 (ip), vehicle: saline with Tween-80 92 % of control | endpoint: mean survival time, dose: 400.0 mg/kg/injection, schedule: Q04DX002 (ip), vehicle: saline with Tween-80 100 % of control

C=C(Br)CNC(=O)C(C)(C)C
inactive: [14] 97 % of control | [15] 97 % of control | [16] 98 % of control

O=C(Nc1ccc([N+](=O)[O-])cc1)Nc1ccc([N+](=O)[O-])c(C(F)(F)F)c1
inactive: endpoint: mean survival time, dose: 12.5 mg/kg/injection, schedule: Q01DX009 (ip), vehicle: saline 87 % of control | endpoint: mean survival time, dose: 15.0 mg/kg/injection, schedule: Q01DX015 (ip), vehicle: saline 97 % of control | [4] 90 % of control | endpoint: mean survival time, dose: 25.0 mg/kg/injection, schedule: Q04DX003 (ip), vehicle: acetone 86 % of control | endpoint: mean survival time, dose: 30.0 mg/kg/injection, schedule: Q01DX015 (ip), vehicle: saline 94 % of control | [5] 90 % of control | endpoint: mean survival time, dose: 50.0 mg/kg/injection, schedule: Q04DX003 (ip), vehicle: acetone 88 % of control | endpoint: mean survival time, dose: 60.0 mg/kg/injection, schedule: Q01DX015 (ip), vehicle: saline 92 % of control | endpoint: mean survival time, dose: 75.0 mg/kg/injection, schedule: Q01DX009 (ip), vehicle: saline with Tween-80 102 % of control | [1] 94 % of control | endpoint: mean survival time, dose: 115.0 mg/kg/injection, schedule: Q01DX009 (ip), vehicle: saline with Tween-80 100 % of control | endpoint: mean survival time, dose: 120.0 mg/kg/injection, schedule: Q01DX015 (ip), vehicle: saline 90 % of control

COC(=O)CCC(C)C1CCC2(C)C3=C(C(=O)CC12C)C1(C)CCC(O)C(C)(C)C1=C(O)C3 (centres undefined)
inactive: [6] 91 % of control | [7] 93 % of control | [8] 91 % of control

COc1ccc(Br)cc1CCCO
inactive: [14] 94 % of control | [15] 92 % of control | [16] 95 % of control

CCCCCCCCCCCCCCCC(=O)N(CCCN)C(C)CCCN(CC)CC (centres undefined)
inactive: endpoint: mean survival time, dose: 25.0 mg/kg/injection, schedule: Q01DX009 (ip), vehicle: saline with Tween-80 93 % of control | endpoint: mean survival time, dose: 50.0 mg/kg/injection, schedule: Q01DX009 (ip), vehicle: saline with Tween-80 86 % of control | endpoint: mean survival time, dose: 100.0 mg/kg/injection, schedule: Q01DX009 (ip), vehicle: saline with Tween-80 102 % of control | [14] 97 % of control | [15] 103 % of control | [16] 100 % of control

c1ccc(CNc2ncnc3[nH]ncc23)cc1
inactive: endpoint: mean survival time, dose: 8.0 mg/kg/injection, schedule: Q01DX009 (ip), vehicle: saline 98 % of control | endpoint: mean survival time, dose: 16.0 mg/kg/injection, schedule: Q01DX009 (ip), vehicle: saline 103 % of control | endpoint: mean survival time, dose: 25.0 mg/kg/injection, schedule: Q01DX Z (ip), vehicle: carboxymethylcellulose (CMC) 123 % of control | endpoint: mean survival time, dose: 32.0 mg/kg/injection, schedule: Q01DX009 (ip), vehicle: saline 98 % of control | endpoint: mean survival time, dose: 50.0 mg/kg/injection, schedule: Q01DX Z (ip), vehicle: carboxymethylcellulose (CMC) 109 % of control | [2] 105 % of control | [3] 101 % of control | endpoint: mean survival time, dose: 800.0 mg/kg/injection, schedule: Q01DX001 (ip), vehicle: saline 102 % of control | endpoint: median survival time, dose: 8.0 mg/kg/injection, schedule: Q01DX009 (ip), vehicle: saline 93 % of control and 100 % of control and 118 % of control | endpoint: median survival time, dose: 16.0 mg/kg/injection, schedule: Q01DX009 (ip), vehicle: saline 100 % of control (2×) and 112 % of control | endpoint: median survival time, dose: 32.0 mg/kg/injection, schedule: Q01DX009 (ip), vehicle: saline 105 % of control and 112 % of control | endpoint: median survival time, dose: 64.0 mg/kg/injection, schedule: Q01DX009 (ip), vehicle: saline 100 % of control (2×) and 122 % of control
